From patent US7875715B2, “Compounds for the treatment of multi-drug resistant bacterial infections” (AstraZeneca AB, priority 2005, dated 2011)
Converted amounts (≈) assume the structure as drawn. Counter-ions that a name gives are not always drawn. Like-named read-outs stand apart in the source and are kept apart here.

Legend:
[1] = molecular target: GyrB ATPase (Escherichia coli, UniProt P0AES4+P0AES6); assay: ATPase assay: inhibition of GyrB ATPase activity, ammonium molybdate/malachite green phosphate detection; assay type: biochemical, E. coli
Protocol: Compounds were tested for inhibition of GyrB ATPase activity using an ammonium molybdate/malachite green-based phosphate detection assay (Lanzetta, P. A., L. J. Alvarez, P. S. Reinach, and O. A. Candia, 1979, 100: 95-97). Assays were performed in multiwell plates in 100 μl reactions containing: 50 mM TRIS buffer pH 7.5, 75 mM ammonium acetate, 5.5 mM magnesium chloride, 0.5 mM ethylenediaminetetraacetic acid, 5% glycerol, 1 mM 1,4-dithio-DL-threitol, 200 nM bovine serum albumin, 16 μg/ml sheared salmon sperm DNA, 4 nM E. coli GyrA, 4 nM E. coli GyrB, 250 μM ATP, and compound in dimethylsulfoxide. Reactions were quenched with 150 μL of ammonium molybdate/malachite green detection reagent containing 1.2 mM malachite green hydrochloride, 8.5 mM ammonium molybdate tetrahydrate, and 1 M hydrochloric acid. Plates were read in an absorbance plate reader at 625 nm and percent inhibition values were calculated using dimethylsulfoxide (2%)-containing reactions as 0% inhibition and novobiocin-containing (2 μM) reactions as 100% inhibition controls. Compound potency was based on IC50 measurements determined from reactions performed in the presence of 10 different compound concentrations.

[2] = molecular target: DNA gyrase (Escherichia coli, UniProt P0AES4+P0AES6); assay: Supercoiling assay: inhibition of Escherichia coli DNA supercoiling activity; assay type: biochemical
Protocol: Compounds were tested for inhibition of Escherichia coli DNA supercoiling activity as follows. Assays were performed in polypropylene multiwell plates in 50 μl reactions containing 35 mM Tris-HCl (pH 7.5), 24 mM KCl, 4 mM MgCl2, 2 mM dithiothreitol, 1.8 mM spermidine, 5% (v/v) glycerol, 200 nM bovine serum albumin, 1.25% (v/v) DMSO, 3 mM ATP, 10 ng/ml relaxed pBR322 plasmid, 0.6 nM DNA gyrase, and test compound. Reactions were quenched after 1 hour by the addition of 10 μl of 30% (w/v) Ficoll-400, 10 mM EDTA, and 5% sodium dodecyl sulfate. Twenty-five μl of each sample was loaded onto a 0.8% (w/v) agarose gel and electrophoresed. The gel and gel buffer contained 1×TBE buffer (89 mM Tris base, 89 mM boric acid, and 2 mM EDTA at pH 8.3). After electrophoresis for 3 hours at 70V, the gel was stained with ethidium bromide and visualized by excitation with ultraviolet light. The fluorescence intensity of the most supercoiled plasmid band was used to measure gyrase activity. Compound potency was based IC50 measurements determined from reactions performed with eight 2-fold serial dilutions of each compound and a control without compound.

[3] = tested on: Escherichia coli; assay: Bacterial susceptibility testing in liquid media (MIC), E. coli; assay type: cell-based; settings: lowest concentration reducing growth by 80% or more, 37° C., 24 hours
Protocol: (§1) Compounds were tested for antimicrobial activity by susceptibility testing in liquid media in a 96 well format. Compounds were dissolved in dimethylsulfoxide and tested in 10 doubling dilutions in the susceptibility assays. The organisms used in the assay were grown overnight on suitable agar media and then suspended in a liquid medium appropriate for the growth of the organism. The suspension was a 0.5 McFarland and a further 1 in 10 dilution was made into the same liquid medium to prepare the final organism suspension in 100 μL. Plates were incubated under appropriate conditions at 37° C. for 24 hours prior to reading. The Minimum Inhibitory Concentration (MIC) was determined as the lowest drug concentration able to reduce growth by 80% or more.
(§2) Compounds were evaluated against a panel of Gram-positive species, including Staphylococcus aureus, Streptococcus pneumoniae, Streptococcus pyogenes, and Enterococcus faecium. In addition, compounds were evaluated against a panel of Gram-negative species including Haemophilus influenzae, Escherichia coli and Moraxella catarrhalis.

[4] = tested on: Streptococcus pneumoniae; assay: Bacterial susceptibility testing in liquid media (MIC), S. pneumo; assay type: cell-based; settings: MIC: lowest concentration reducing growth by 80% or more; 37° C., 24 hours
Protocol: as §1, §2

[5] = 4 nM E. coli GyrA, 4 nM E. coli GyrB, 250 μM ATP, read-out: gyrase ATPase (converted)

DNA gyrase, sequence (P0AES4 whole entry, one chain of several): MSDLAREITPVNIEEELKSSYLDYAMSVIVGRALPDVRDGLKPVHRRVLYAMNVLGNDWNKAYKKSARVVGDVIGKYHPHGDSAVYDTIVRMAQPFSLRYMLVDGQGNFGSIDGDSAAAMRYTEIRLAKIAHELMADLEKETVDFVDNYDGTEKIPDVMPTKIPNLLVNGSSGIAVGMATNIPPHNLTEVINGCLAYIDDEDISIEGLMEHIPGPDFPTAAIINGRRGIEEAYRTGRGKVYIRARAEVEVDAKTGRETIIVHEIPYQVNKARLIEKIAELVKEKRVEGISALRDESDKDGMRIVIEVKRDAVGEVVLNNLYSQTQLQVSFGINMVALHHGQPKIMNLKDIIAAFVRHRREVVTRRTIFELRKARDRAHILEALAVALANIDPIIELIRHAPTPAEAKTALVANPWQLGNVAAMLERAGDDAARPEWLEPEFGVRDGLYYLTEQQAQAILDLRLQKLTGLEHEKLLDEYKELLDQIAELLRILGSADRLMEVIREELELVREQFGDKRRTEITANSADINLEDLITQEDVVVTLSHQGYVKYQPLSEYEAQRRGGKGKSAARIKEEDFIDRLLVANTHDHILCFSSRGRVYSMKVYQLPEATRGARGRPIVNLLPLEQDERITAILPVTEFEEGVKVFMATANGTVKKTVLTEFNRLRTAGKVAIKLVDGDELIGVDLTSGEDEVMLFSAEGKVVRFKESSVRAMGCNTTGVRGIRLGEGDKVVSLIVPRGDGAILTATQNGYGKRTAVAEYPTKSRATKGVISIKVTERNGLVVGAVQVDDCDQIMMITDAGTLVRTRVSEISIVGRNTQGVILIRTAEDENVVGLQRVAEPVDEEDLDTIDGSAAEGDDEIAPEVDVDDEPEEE
GyrB ATPase, sequence (P0AES4 whole entry, one chain of several): as above

| SMILES | melting point | MIC [3] | S. pneumo [4] | further results |
| --- | --- | --- | --- | --- |
| O=c1ccc2ccc(F)cc2n1CCN1CCC(NCc2cc3c(cn2)OCCO3)CC1 (as salt: HCl) [Example 10, 1-(2-{4-[(2,3-Dihydro[1,4]dioxino[2,3-c]pyridin-7-ylmethyl)amino]piperidin-1-yl}ethyl)-7-fluoroquinolin-2(1H)-one] | > 275 °C (dec.) |  |  |  |
| COc1ccc2c(=O)ccn(CCN3CCC(NCc4cc5c(cn4)OCCO5)CC3)c2c1 (as salt: hydrochloride) [Example 2, 1-(2-{4-[(2,3-Dihydro[1,4]dioxino[2,3-c]pyridin-7-ylmethyl)amino]piperidin-1-yl}ethyl)-7-methoxyquinolin-4(1H)-one] | 260 °C |  |  |  |
| O=C(O)[C@H]1CN(CCn2c(=O)ccc3c(F)cc(F)cc32)CC[C@H]1NC/C=C/c1cc(F)ccc1F (as salt: hydrochloride) [Example 13, (3S,4R)-1-[2-(5,7-Difluoro-2-oxoquinolin-1(2H)-yl)ethyl]-4-{[(2E)-3-(2,5-difluorophenyl)prop-2-en-1-yl]amino}piperidine-3-carboxylic acid] | 150 to 180 °C |  |  |  |
| O=C(O)[C@@H]1CN(CCn2c(=O)ccc3c(F)cc(F)cc32)CC[C@H]1NCc1cc2c(cn1)OCCO2 (as salt: hydrochloride) [Example 16, (3R,4R)-1-[2-(5,7-Difluoro-2-oxoquinolin-1(2H)-yl)ethyl]-4-[(2,3-dihydro[1,4]dioxino[2,3-c]pyridin-7-ylmethyl)amino]piperidine-3-carboxylic acid] | > 190 °C |  |  |  |
| O=C(O)[C@@H]1CN(CCn2c(=O)ccc3c(F)cc(F)cc32)CC[C@H]1NC/C=C/c1cc(F)ccc1F (as salt: hydrochloride) [Example 17, (3R,4R)-1-[2-(5,7-Difluoro-2-oxoquinolin-1(2H)-yl)ethyl]-4-{[(2E)-3-(2,5-difluorophenyl)prop-2-en-1-yl]amino}piperidine-3-carboxylic acid] | > 205 °C |  |  |  |
| O=C1COc2ccc(CNC3CCN(CCn4c(=O)ccc5ccc(F)c(F)c54)CC3)nc2N1 (as salt: salt) [Example 7, 6-[({1-[2-(7,8-Difluoro-2-oxoquinolin-1(2H)-yl)ethyl]piperidin-4-yl}amino)methyl]-2H-pyrido[3,2-b][1,4]oxazin-3(4H)-one] | 158 to 170 °C |  |  |  |
| O=C1COc2ccc(CNC3CCN(CCn4c(=O)ccc5c(F)cc(F)cc54)CC3)nc2N1 (as salt: salt) [Example 8, 6-[({1-[2-(5,7-Difluoro-2-oxoquinolin-1(2H)-yl)ethyl]piperidin-4-yl}amino)methyl]-2H-pyrido[3,2-b][1,4]oxazin-3(4H)-one] | 170 to 180 °C |  |  |  |
| O=C1COc2ccc(CNC3CCN(CCn4c(=O)ccc5ccc(F)cc54)CC3)nc2N1 (as salt: salt) [Example 9, 6-[({1-[2-(7-Fluoro-2-oxoquinolin-1(2H)-yl)ethyl]piperidin-4-yl}amino)methyl]-2H-pyrido[3,2-b][1,4]oxazin-3(4H)-one] | 150 to 155 °C |  |  |  |
| COC(=O)c1cc2ccc(OC)cc2n1CCN1CCC(NCc2cc3c(cn2)OCCO3)CC1 [Example 3, Methyl 1-(2-{4-[(2,3-dihydro[1,4]dioxino[2,3-c]pyridin-7-ylmethyl)amino]piperidin-1-yl}ethyl)-6-methoxy-1H-indole-2-carboxylate] | 130 °C |  |  |  |
| N#Cc1ccc2ccc(=O)n(CCN3CCC(NCc4cc5c(cn4)OCCO5)CC3)c2c1 [Example 5, 1-(2-{4-[(2,3-Dihydro[1,4]dioxino[2,3-c]pyridin-7-ylmethyl)amino]piperidin-1-yl}ethyl)-2-oxo-1,2-dihydroquinoline-7-carbonitrile] |  | 0.5 µg/mL (≈ 1.12 µM) | 0.12 microgram/ml | IC50 [1, 5]: 157 nM; IC50 ([2]; 0.6 nM DNA gyrase, relaxed pBR322 plasmid, 1 hour, read-out: gyrase supercoiling (converted)): 114 nM |
| N#Cc1ccc2ccc(=O)n(CCN3CCC(NCc4ccc5c(n4)NC(=O)CO5)CC3)c2c1 [Example 6, 2-Oxo-1-[2-(4-{[(3-oxo-3,4-dihydro-2H-pyrido[3,2-b][1,4]oxazin-6-yl)methyl]amino}piperidin-1-yl)ethyl]-1,2-dihydroquinoline-7-carbonitrile] | 212 °C |  |  |  |
| O=C1COc2ccc(F)cc2N1CCN1CCC(NCc2cc3c(cn2)OCCO3)CC1 [Example 26, 4-(2-{4-[(2,3-Dihydro[1,4]dioxino[2,3-c]pyridin-7-ylmethyl)amino]piperidin-1-yl}ethyl)-6-fluoro-2H-1,4-benzoxazin-3(4H)-one] |  | 1 µg/mL (≈ 2.26 µM) | 0.25 microgram/ml | IC50 [2]: 949 nM |
| N#Cc1ccc2c(c1)N(CCN1CCC(NC/C=C/c3cc(F)ccc3F)CC1)C(=O)CO2 [Example 37, 4-[2-(4-{[(2E)-3-(2,5-Difluorophenyl)prop-2-en-1-yl]amino}piperidin-1-yl)ethyl]-3-oxo-3,4-dihydro-2H-1,4-benzoxazine-6-carbonitrile] |  | 0.25 µg/mL (≈ 0.552 µM) | 0.06 microgram/ml | IC50 [1]: 17.7 nM |
| O=C1COc2ccccc2N1CCN1CCC(NCc2cc3c(cn2)OCCO3)CC1 [Example 49, 4-(2-{4-[(2,3-Dihydro[1,4]dioxino[2,3-c]pyridin-7-ylmethyl)amino]piperidin-1-yl}ethyl)-2H-1,4-benzoxazin-3(4H)-one] |  | 8 µg/mL (≈ 18.8 µM) | 4 microgram/ml | IC50 [2]: 7070 nM |
| Cn1c(=O)c2ccc(F)cc2n(CCN2CCC(NCc3ccc4c(n3)NC(=O)CO4)CC2)c1=O [Example 66, 7-Fluoro-3-methyl-1-[2-(4-{[(3-oxo-3,4-dihydro-2H-pyrido[3,2-b][1,4]oxazin-6-yl)methyl]amino}piperidin-1-yl)ethyl]quinazoline-2,4(1H,3H)-dione] |  | 4 µg/mL (≈ 8.29 µM) | 8 microgram/ml | IC50 [1, 5]: 622 nM |
